What all share (assay type): in vivo
Test [1] deals with goosegrass (Eleusine indica). Briefly: Test A1 preemergence, goosegrass. The gist of the method:
(§1)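 Both timings started from seed in a loam-sand blend. Preemergence pots got a directed soil application immediately; postemergence pots were sprayed when seedlings had one or two leaves and stood 2–10 cm. Each compound was prepared in a non-phytotoxic solvent plus surfactant.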

Test [2] has as its system Oat, Wild (wild oat, Avena fatua). As to the kind of experiment: Test A1 preemergence, Oat, Wild. An outline of the steps: as §1
Test [3] deals with goosegrass (Eleusine indica). As to the kind of experiment: Test A1 postemergence, goosegrass. The settings on record: for Plant response rating, Goosegrass: Postemergence; for Goosegrass plant response rating: 31 g ai/ha, postemergence. The gist of the method: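 Plants were grown in a loam soil/sand blend, with test chemicals formulated in a non-phytotoxic solvent mixture containing surfactant. Preemergence treatment (corn) was a directed soil spray at planting. Postemergence treatment was applied to plants 2 to 10 cm tall at the one- to two-leaf stage.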

The subject of test [4] is ragweed (common ragweed, Ambrosia artemisiifolia). As to the kind of experiment: Test A1 postemergence, ragweed. The settings on record: for Plant response rating, Ragweed: Postemergence; for Ragweed plant response rating: 31 g ai/ha, postemergence. An outline of the steps:
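Pre: seeds in loam/sand blend, directed soil spray. Post: potted plants, same soil, 2–10 cm, 1–2 leaf stage. Chemicals in non-phytotoxic solvent + surfactant for both.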

Where [5] appears, read: 125 g ai/ha, 0 to 100 scale, 0 no effect, 100 complete control.
[6] abbreviates: 500 g ai/ha, 0 to 100 scale (0 no effect, 100 complete control).
The mark [7] stands for this setting: 125 g ai/ha, 0 to 100 scale (0 no effect, 100 complete control), 10 days.
Where [8] appears, read: 31 g ai/ha, 0 to 100 scale (0 no effect, 100 complete control).
[9] abbreviates: 0 to 100 scale (0 no effect, 100 complete control).
Setting [10] is: 125 g ai/ha, 0 to 100 scale (0 no effect, 100 complete control).

For the compound `Cc1cc(C)c(N(COC(=O)C(C)(C)C)S(=O)(=O)C(F)(F)F)cc1N1CCC2(CCC(F)(F)CC2)C1=O` [Compound 397], the “Plant response rating, Goosegrass” value in test [1] (setting [5]) worked out at 100; in test [1] (setting [6]), 100; in test [3] (setting [7]), 90; in test [3] (500 g ai/ha, 0 to 100 scale), 90. For the same compound, the “Plant response rating, Oat, Wild” value in test [2] (setting [5]) is reported as 20; in test [2] (setting [6]), 90. Also, the “Plant response rating, Ragweed” value was determined as 80 in test [4] (setting [7]) and 80 in test [4] (500 g ai/ha, 0 to 100 scale).

For `COC1CCC2(CC1)CCN(c1cc(NS(=O)(=O)C(F)(F)F)c(C)cc1C)C2=O` (stereo not shown) [Compound 398], the results for the “Plant response rating, Goosegrass” value in test [1] (setting [8]), in test [1] (setting [5]) and in test [3] (setting [7]) were 100, 100 and 90, respectively. Further, the results for the “Plant response rating, Oat, Wild” value in test [2] (setting [8]) and in test [2] (setting [5]) were 20 and 70, respectively. Also, the “Goosegrass plant response rating” value in test [3] (setting [9]) is 50. The “Ragweed plant response rating” value in test [4] (setting [9]) came out at 20. In test [4] (setting [7]), the “Plant response rating, Ragweed” value is 80.

Take `Cc1cc(C)c(N2CCC3(CCC(C(F)(F)F)CC3)C2=O)cc1NS(=O)(=O)C(F)(F)F` (stereo not shown) [Compound 400]: the “Plant response rating, Goosegrass” value was 90 in test [1] (setting [8]), 100 in test [1] (setting [5]) and 80 in test [3] (setting [7]). Further, the “Plant response rating, Oat, Wild” value in test [2] (setting [8]) is reported as 50; in test [2] (setting [5]), 90. The “Goosegrass plant response rating” value in test [3] (setting [9]) came out at 10. Moreover, the “Ragweed plant response rating” value in test [4] (setting [9]) amounted to 30. The “Plant response rating, Ragweed” value in test [4] (setting [7]) was found to be 80.

With `Cc1cc(C)c(N(COC(=O)C(C)(C)C)S(=O)(=O)C(F)(F)F)cc1N1CCC2(CCC(C)CC2)C1=O` (stereo not shown) [Compound 401], the results for the “Plant response rating, Goosegrass” value in test [1] (setting [8]), in test [1] (setting [5]) and in test [3] (setting [7]) were 0, 30 and 90, respectively. Further, the “Plant response rating, Oat, Wild” value in test [2] (setting [8]) and in test [2] (setting [5]) was 0 throughout. Further, the “Goosegrass plant response rating” value in test [3] (setting [9]) is on record as 0. In test [4] (setting [9]), the “Ragweed plant response rating” value came to 60. The “Plant response rating, Ragweed” value in test [4] (setting [7]) is listed as 90.

In the case of `Cc1cc(C)c(N2CCC3(CCC(C)CC3)C2=O)cc1NS(=O)(=O)C(F)(F)F` (stereo not shown) [Compound 402], the “Plant response rating, Goosegrass” value in test [1] (setting [8]) is given as 90; in test [1] (setting [5]), 100; in test [3] (setting [7]) it was 70. Also, the “Plant response rating, Oat, Wild” value in test [2] (setting [8]) turned out to be 50; in test [2] (setting [5]), 70. For the same compound, the “Goosegrass plant response rating” value in test [3] (setting [9]) is 20. The “Ragweed plant response rating” value in test [4] (setting [9]) was determined as 50. The “Plant response rating, Ragweed” value in test [4] (setting [7]) was 50.

Consider `Cc1cc(C)c(N2Cc3cccc(C)c3C2=O)cc1NS(=O)(=O)Cl` [Compound 408], for which the results for the “Plant response rating, Goosegrass” value in test [1] (setting [8]), in test [1] (setting [10]) and in test [3] (setting [7]) were 100, 100 and 90, respectively. Further, in test [2] (setting [10]), the “Plant response rating, Oat, Wild” value is reported as 100. The “Goosegrass plant response rating” value in test [3] (setting [9]) is recorded as 90. The “Ragweed plant response rating” value in test [4] (setting [9]) is recorded as 40. Also, the “Plant response rating, Ragweed” value in test [4] (setting [7]) is given as 90.

As to `CCOc1cccc2c1C(=O)N(c1cc(N(COC(=O)C(C)(C)C)S(=O)(=O)Cl)c(C)cc1C)C2` [Compound 414], the “Plant response rating, Goosegrass” value in test [1] (setting [8]), in test [1] (setting [10]) and in test [3] (setting [7]) was 0 in each case. For the same compound, the “Plant response rating, Oat, Wild” value in test [2] (setting [10]) came out at 30. The “Goosegrass plant response rating” value in test [3] (setting [9]) is reported as 0. Further, in test [4] (setting [9]), the “Ragweed plant response rating” value came to 40. For the same compound, the “Plant response rating, Ragweed” value in test [4] (setting [7]) came to 70.

Consider `Cc1cc(C)c(N2Cc3cccc(Br)c3C2=O)cc1NS(=O)(=O)Cl` [Compound 415], for which the “Plant response rating, Goosegrass” value came to 90 in test [1] (setting [8]), 100 in test [1] (setting [10]) and 90 in test [3] (setting [7]). Also, the “Plant response rating, Oat, Wild” value in test [2] (setting [10]) is listed as 80. In addition, in test [3] (setting [9]), the “Goosegrass plant response rating” value is reported as 70. The “Ragweed plant response rating” value in test [4] (setting [9]) amounted to 30. Besides, in test [4] (setting [7]), the “Plant response rating, Ragweed” value is given as 70.

These data come from patent US20230278972A1, “SUBSTITUTED HALOALKYL SULFONANILIDE HERBICIDES” (FMC Corporation, priority 2020, published 2023).
